Test results: PMC8310591, “Production of trans-cinnamic acid by whole-cell bioconversion from L-phenylalanine in engineered Corynebacterium glutamicum” (Microbial Cell Factories, 2021)

Molecular target: T1, SmPAL (Streptomyces maritimus, UniProt Q9KHJ9)
T1 construct: gene encP; native gene amplified from pHB-104, expressed from pHCMS-SmPAL (PH36 promoter) in Corynebacterium glutamicum ATCC 13032; 56 kDa; no tag mentioned; whole cells, not purified
T1 sequence (Q9KHJ9 1-523): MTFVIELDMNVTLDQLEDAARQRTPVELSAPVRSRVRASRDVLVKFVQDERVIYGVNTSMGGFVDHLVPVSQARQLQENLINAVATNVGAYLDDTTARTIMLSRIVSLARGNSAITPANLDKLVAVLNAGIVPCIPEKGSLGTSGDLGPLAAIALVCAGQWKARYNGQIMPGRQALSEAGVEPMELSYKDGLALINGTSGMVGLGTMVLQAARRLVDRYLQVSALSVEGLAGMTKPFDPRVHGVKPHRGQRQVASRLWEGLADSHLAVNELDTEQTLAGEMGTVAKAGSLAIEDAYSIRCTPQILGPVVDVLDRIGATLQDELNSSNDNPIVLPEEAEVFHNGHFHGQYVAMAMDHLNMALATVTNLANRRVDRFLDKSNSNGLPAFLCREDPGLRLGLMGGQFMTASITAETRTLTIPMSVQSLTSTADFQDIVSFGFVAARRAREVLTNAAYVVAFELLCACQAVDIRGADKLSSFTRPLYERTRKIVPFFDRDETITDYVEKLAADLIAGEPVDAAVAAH
Assay: whole-cell bioconversion, HPLC of L-Phe and t-CA
Type: cell-based
Conditions: C. glutamicum harboring pHCMS-SmPAL; 18.2 mM L-Phe; 100 mM Tris-HCl pH 7.5; 30 °C; product trans-cinnamic acid

## N[C@@H](Cc1ccccc1)C(=O)O [L-phenylalanine]
  whole-cell bioconversion, HPLC of L-Phe and t-CA: the bioconversion of L-Phe to t-CA was immediately observed
